From patent US4226879A, “Antibiotic composition” (Kyowa Hakko Kogyo Kabushiki Kaisha, priority 1976, dated 1980)
In brackets after ≈: the same amount, converted by molar mass.

Columns and labels:
[1] = test system: Xanthomonas oryzae; assay: microbe, parasite or virus in culture; type: cell-based; conditions: 72 h, pH 6.8
[2] = test system: Salmonella typhimurium; assay: MIC, agar dilution method; type: cell-based; conditions: Salmonella enterica, pH 7.0, 37° C., 18 hours
[3] = test system: poultry; assay: side effects in poultry; type: in vivo, poultry such as chickens; conditions: pharmaceutical composition or assorted diet, chickens, turkeys
[4] = test system: Cryptococcus neoformans; assay: MIC, agar dilution method; type: cell-based; conditions: pH 6.8, 27° C. 72 hours
[5] = test system: Aspergillus niger; assay: MIC, agar dilution method; type: cell-based; conditions: pH 6.8, 27° C. 72 hours
[6] = test system: fungi; assay: antifungal activity, agar dilution method; type: cell-based; conditions: at a concentration below 100 mcg/ml
From the text: (§1) Table 1 indicates the antibacterial and antifungal activity of AM-1042 as minimum inhibitory concentration (mcg/ml) determined by the agar dilution method.
**Potato extract containing glucose 1.0% and agar 1.2% (pH 6.8),

[7] = test system: Pseudomonas aerginosa P-3; assay: MIC, agar dilution method; type: cell-based; conditions: P3, pH 7.0, 37° C., 18 hours
[8] = test system: Sclerotinia cinerea; assay: MIC, agar dilution method; type: cell-based; conditions: pH 6.8, 27° C. 72 hours
[9] = test system: Klebsiella pneumoniae PCI 602; assay: MIC, agar dilution method; type: cell-based; conditions: PCI602, pH 7.0, 37° C., 18 hours
[10] = in vivo; conditions: mouse, ip
[11] = test system: Escherchia coli NIHJ; assay: MIC, agar dilution method; type: cell-based; conditions: pH 7.0, 37° C., 18 hours
[12] = test system: Nocardia asteroides; assay: MIC, agar dilution method; type: cell-based
[13] = test system: Eimeria brunetti; assay: anticoccidial activity; type: in vivo
[14] = test system: Eimeria tenella K-2; assay: anticoccidial test in chicks (Example 4); conditions: for Caecal lession (numbers of chicks), +: grade + (light); for Caecal lession (numbers of chicks), + / Caecal lession (numbers of chicks), ++ / Caecal lession (numbers of chicks), +++ / Caecal lession (numbers of chicks), -: groups of 10 chicks; for Caecal lession (numbers of chicks), ++: grade ++ (middle); for Caecal lession (numbers of chicks), +++: grade +++ (heavy); for Caecal lession (numbers of chicks), -: grade - (not infected)
[15] = test system: Gram-negative bacteria; assay: growth inhibition, agar dilution method; type: cell-based; conditions: at concentration below 100 mcg/ml
Protocol: as §1
*Peptone 0.5%; meat extract 0.5%; agar 1.2% (pH 7.0), 37° C., 18

[16] = test system: Staphylococcus aureus; assay: antibacterial activity; type: cell-based
[17] = test system: Staphylococcus aureus FDA 209P; assay: MIC, agar dilution method; type: cell-based; conditions: FDA209P, pH 7.0, 37° C., 18 hours

O=C(/C=C/C=C/C=C/C1CCCCC1)NC1=CC(O)(/C=C/C=C/C=C/C(=O)NC2=C(O)CCC2=O)C2OC2C1=O (centres unmarked) [AM-1042]
MIC [1]: > 100 mg/L | MIC [2]: > 100 mg/L | side effects in poultry [3]: without any side effects | MIC [4]: > 100 mg/L | MIC [5]: > 100 mg/L | activity on fungi [6]: no significant activity | MIC [7]: > 100 mg/L | MIC [8]: 100 mg/L (≈ 183 µM) | MIC [9]: > 100 mg/L | LD50 [10]: 48.5 mg/kg | MIC [11]: 100 mg/L (≈ 183 µM) | activity upon Nocarida asteroides [12]: active | MIC ([12]; Nocardia asteroides, pH 7.0, 37° C., 18 hours): 1.56 mg/L (≈ 2.85 µM) | activity upon coccidiosis [13]: significantly active | Survival ratio ([14]; 0.00375 % in diet): 90% | Survival ratio ([14]; 0.005 % in diet): 90% | Survival ratio ([14]; 0.0075 % in diet): 100% | Survival ratio ([14]; 0.01 % in diet): 100% | Survival ratio ([14]; 0.015 % in diet): 100% | Survival ratio ([14]; 0.02 % in diet): 100% | Survival ratio ([14]; 0.03 % in diet): 100% | Caecal lession (numbers of chicks), + ([14]; 0.00375 % in diet): 1 numbers of chicks | Caecal lession (numbers of chicks), + ([14]; 0.005 % in diet): 3 numbers of chicks | Caecal lession (numbers of chicks), + ([14]; 0.0075 % in diet): 5 numbers of chicks | Caecal lession (numbers of chicks), + ([14]; 0.01 % in diet): 2 numbers of chicks | Caecal lession (numbers of chicks), ++ ([14]; 0.00375 % in diet): 4 numbers of chicks | Caecal lession (numbers of chicks), ++ ([14]; 0.005 % in diet): 4 numbers of chicks | Caecal lession (numbers of chicks), ++ ([14]; 0.0075 % in diet): 2 numbers of chicks | Caecal lession (numbers of chicks), +++ ([14]; 0.00375 % in diet): 5 numbers of chicks | Caecal lession (numbers of chicks), +++ ([14]; 0.005 % in diet): 3 numbers of chicks | Caecal lession (numbers of chicks), - ([14]; 0.0075 % in diet): 3 numbers of chicks | Caecal lession (numbers of chicks), - ([14]; 0.01 % in diet): 8 numbers of chicks | Caecal lession (numbers of chicks), - ([14]; 0.015 % in diet): 10 numbers of chicks | Caecal lession (numbers of chicks), - ([14]; 0.02 % in diet): 10 numbers of chicks | Caecal lession (numbers of chicks), - ([14]; 0.03 % in diet): 10 numbers of chicks | effect on Gram-negative bacteria [15]: no significant effect | activity upon Staphylococcus aureus [16]: active | MIC [17]: 3.1 mg/L (≈ 5.67 µM)
